The source of these data is PubChem BioAssay (NCI).

Molecules are shown by their SMILES.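 Growth conditions: 96-well plates. Treatment: test compound, 48 hours, 5 concentrations. Analysis: linear interpolation between bracketing concentrations; unreached endpoints set to highest concentration. At the GI50, growth is halved. The concentration for full growth arrest is given as TGI.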

Among the test systems are HCT-15 colon; KM12 colon; M14 melanoma; MCF7 breast; OVCAR-8 ovarian; SF-268 CNS; SK-MEL-5 melanoma; SNB-19 CNS; ACHN renal; NCI-H522 lung.
Common to all, as to assay: NCI tumour cell line growth inhibition, 48 h

`S=C(Nc1cccc(Cl)c1)Nc1ccccn1`: the TGI in the test with HCT-15 colon, in the test on KM12 colon, with M14 melanoma, in the test on MCF7 breast, in the test with OVCAR-8 ovarian and with SF-268 CNS was above 100 µM each time. The TGI in the test with SK-MEL-5 melanoma and with SNB-19 CNS was above 100 µM each time.

`COC(=O)N/N=C/c1oc(-c2cccc([N+](=O)[O-])c2)c(-c2cccc([N+](=O)[O-])c2)c1[N+](=O)[O-]`: the TGI in the test with ACHN renal, in the test on HCT-15 colon, in the test on KM12 colon, in the test with M14 melanoma, in the test on NCI-H522 lung and with OVCAR-8 ovarian was above 100 µM throughout. The TGI with SF-268 CNS, in the test on SK-MEL-5 melanoma and in the test on SNB-19 CNS was above 100 µM in each case.

Take `COC(=O)c1c(C(=O)OC)c2cc(C(=O)c3ccccc3)ccn2c1Cl`: the TGI was above 100 µM in the test on ACHN renal; above 100 µM with HCT-15 colon; 72.8 µM in the test on KM12 colon; above 100 µM in the test on M14 melanoma; 50.8 µM in the test with NCI-H522 lung; above 100 µM with OVCAR-8 ovarian. Moreover, the TGI in the test with SF-268 CNS is above 100 µM; in the test on SK-MEL-5 melanoma, 33.2 µM; in the test on SNB-19 CNS, above 100 µM.

For `COc1ccc(C2C(Cl)C(=O)N2NC(=O)Cc2ccccc2)cc1` (stereo not given), the TGI with ACHN renal, in the test on HCT-15 colon, with KM12 colon, in the test with M14 melanoma, in the test with NCI-H522 lung and in the test on OVCAR-8 ovarian was above 100 µM throughout. For the same compound, the TGI in the test with SF-268 CNS, in the test on SK-MEL-5 melanoma and in the test on SNB-19 CNS was above 100 µM each time.

As to `O=C1CCCC2=C1CC1=C(CCCC1=O)N2c1cccc2ccccc12`, the TGI in the test with ACHN renal, in the test with HCT-15 colon, in the test with KM12 colon, in the test with M14 melanoma, with MCF7 breast and in the test with OVCAR-8 ovarian was above 100 µM each time. Further, the TGI in the test on SF-268 CNS, with SK-MEL-5 melanoma and with SNB-19 CNS was above 100 µM in each case.

As to `[N-]=[N+]=NC1C(Br)C(=O)NC(=O)N1[C@H]1C[C@H](O)[C@@H](CO)O1` (stereo not given in full), the TGI in the test on ACHN renal, in the test with KM12 colon, with M14 melanoma, with NCI-H522 lung, with OVCAR-8 ovarian and in the test with SF-268 CNS was above 100 µM each time. Also, the TGI in the test on SK-MEL-5 melanoma and with SNB-19 CNS was above 100 µM throughout. For the same compound, in the test on SK-MEL-5 melanoma, the GI50 was 42.2 µM.

With `N#CS/C(Cl)=C(/C(Cl)=C(Cl)Cl)[N+](=O)[O-]`, the TGI is above 100 µM with ACHN renal; 45.9 µM in the test on HCT-15 colon; above 100 µM in the test on KM12 colon; above 100 µM in the test on M14 melanoma; above 100 µM in the test with MCF7 breast; above 100 µM in the test on OVCAR-8 ovarian. Further, the TGI in the test with SF-268 CNS is above 100 µM; in the test on SK-MEL-5 melanoma it was above 100 µM; with SNB-19 CNS, 29.3 µM.

For `CNC(=O)CCNC(=O)CCC(=O)OC`, the TGI in the test with ACHN renal, with KM12 colon, with M14 melanoma, in the test with MCF7 breast, in the test with OVCAR-8 ovarian and in the test with SF-268 CNS was above 100 µM throughout. The TGI in the test with SK-MEL-5 melanoma and in the test on SNB-19 CNS was above 100 µM each time.

As for `CC1C[C@]2(C)C(=S)Nc3ccccc3[C@@H]2Nc2ccccc21` (stereo not given in full), the TGI in the test with ACHN renal stood at 39.5 µM; with HCT-15 colon, 50.8 µM; in the test on KM12 colon, 28.9 µM; in the test on M14 melanoma, 32.4 µM; in the test with MCF7 breast, 27.3 µM; in the test with OVCAR-8 ovarian, 29.5 µM. Besides, the TGI amounted to 16.4 µM with SF-268 CNS, 31.7 µM with SK-MEL-5 melanoma and 57.4 µM in the test with SNB-19 CNS.

As to `COC[n+]1cc2cc(OC)c(OC)cc2c2ccc3cc(OC)c(OC)cc3c21`, the TGI with ACHN renal, with HCT-15 colon, in the test on KM12 colon, with M14 melanoma, in the test with NCI-H522 lung and with OVCAR-8 ovarian was above 100 µM throughout. In addition, the TGI with SF-268 CNS, with SK-MEL-5 melanoma and with SNB-19 CNS was above 100 µM in each case.

`CC1[C@@H](OCc2ccccc2)COC(=O)N1Cc1ccccc1` (stereo not given in full): the TGI in the test on ACHN renal, in the test with HCT-15 colon, in the test with KM12 colon, in the test with M14 melanoma, with MCF7 breast and with OVCAR-8 ovarian was above 100 µM throughout. Besides, the TGI in the test with SF-268 CNS, in the test with SK-MEL-5 melanoma and in the test on SNB-19 CNS was above 100 µM in each case.

With `CCN(CC)Cc1cc(Nc2c3ccccc3nc3c2[nH]c2ccccc23)ccc1O`, the TGI with ACHN renal is 3.53 µM; in the test on HCT-15 colon it was 3.25 µM; with KM12 colon, 4.66 µM; in the test on M14 melanoma it was 3.11 µM; in the test with NCI-H522 lung, 2.33 µM; with OVCAR-8 ovarian it was 3.11 µM. The TGI with SK-MEL-5 melanoma was 3.51 µM; in the test with SNB-19 CNS it was 5.03 µM.

`N#CC12C3C4CC5C6C4C1C6C(O)(C53)N2Cc1ccccc1` (stereo not given): the TGI in the test with ACHN renal, in the test with HCT-15 colon, with KM12 colon, in the test on M14 melanoma, in the test on NCI-H522 lung and in the test on OVCAR-8 ovarian was above 100 µM each time. In addition, the TGI in the test with SF-268 CNS, in the test with SK-MEL-5 melanoma and in the test on SNB-19 CNS was above 100 µM throughout.

Turning to `COc1cc2[nH]c(-c3cccc(N(C)C)c3)cc(=O)c2cc1OC`, the TGI is above 100 µM with ACHN renal; above 64.6 µM with HCT-15 colon; above 60.1 µM in the test with KM12 colon; above 100 µM in the test with M14 melanoma; 17.6 µM in the test on NCI-H522 lung; above 100 µM with OVCAR-8 ovarian. Also, the TGI in the test on SF-268 CNS, in the test with SK-MEL-5 melanoma and in the test on SNB-19 CNS was above 100 µM in each case.

With `C=C[C@@]1(C)CC(=O)[C@]2(O)[C@@]3(C)[C@@H](OC(C)=O)CCC(C)(C)[C@@H]3[C@H](OC(C)=O)[C@H](OC(C)=O)[C@@]2(C)O1`, the TGI with ACHN renal, in the test with HCT-15 colon, in the test with KM12 colon, in the test on M14 melanoma, with MCF7 breast and in the test on OVCAR-8 ovarian was above 100 µM each time. In the test on SNB-19 CNS, this compound came in with a TGI above 100 µM.

Consider `CCOC(=O)c1ccc(C(=O)/C(C#N)=C2\CCCN2)[nH]1`, for which the TGI in the test with HCT-15 colon, in the test with KM12 colon, in the test on M14 melanoma, with MCF7 breast, in the test on OVCAR-8 ovarian and in the test with SF-268 CNS was above 100 µM throughout. Also, the TGI in the test with SK-MEL-5 melanoma and in the test on SNB-19 CNS was above 100 µM throughout.

With `O=C(c1ccncc1)n1nc(-c2ccccc2)c(N=Nc2ccc([N+](=O)[O-])cc2)c1-c1ccccc1`, the TGI with KM12 colon, in the test with M14 melanoma, in the test on NCI-H522 lung, in the test with OVCAR-8 ovarian, in the test on SF-268 CNS and with SK-MEL-5 melanoma was above 100 µM each time. Moreover, the TGI with SNB-19 CNS is above 100 µM.

On to `CC1=NN(C(=O)Cc2ccccc2)C(=O)/C1=C\C=C\c1ccccc1`, for which the TGI in the test with ACHN renal, in the test with HCT-15 colon, with KM12 colon, with M14 melanoma, with NCI-H522 lung and in the test with OVCAR-8 ovarian was above 100 µM each time. The TGI in the test on SF-268 CNS, with SK-MEL-5 melanoma and in the test on SNB-19 CNS was above 100 µM in each case.

Regarding `Cc1cc(Cl)ccc1N=NC(=O)NNc1ccc(Cl)cc1C`, the TGI stood at 40.3 µM in the test on ACHN renal; 25.8 µM in the test with HCT-15 colon; 35.3 µM in the test with M14 melanoma; 35.1 µM with NCI-H522 lung; 27.2 µM with OVCAR-8 ovarian; 37.5 µM with SF-268 CNS. The TGI in the test on SK-MEL-5 melanoma was found to be 26.9 µM; in the test with SNB-19 CNS, 48.9 µM.

For the compound `Cc1cc2oc(=O)[nH]c(=S)c2c(C)c1C`, the TGI with ACHN renal, in the test with HCT-15 colon, in the test on KM12 colon, in the test with M14 melanoma, in the test on NCI-H522 lung and with OVCAR-8 ovarian was above 100 µM in each case. In addition, the TGI in the test with SF-268 CNS and with SNB-19 CNS was above 100 µM throughout.

With `CCOC(=O)CC[C@@H](NC(=O)c1ccc(N[C@@H]2c3cc4c(cc3C(c3cc(OC)c(O)c(OC)c3)C3C(=O)OC[C@@H]32)OCO4)cc1)C(=O)OCC` (stereo not given in full), the TGI with ACHN renal was 0.0379 µM; with HCT-15 colon, 0.233 µM; in the test on M14 melanoma, above 10 µM; in the test on SF-268 CNS, 0.0686 µM; with SK-MEL-5 melanoma, 0.144 µM; with SNB-19 CNS, 0.116 µM.

For the compound `CC(C)(C)[C@H]1CO[C@]2(C)[C@@H]3C[C@@H]3C(=O)N12`, the TGI in the test on ACHN renal, with HCT-15 colon, in the test on KM12 colon, in the test with M14 melanoma, with NCI-H522 lung and in the test with OVCAR-8 ovarian was above 100 µM in each case. The TGI in the test on SF-268 CNS, in the test with SK-MEL-5 melanoma and in the test with SNB-19 CNS was above 100 µM in each case.
